Data published in US6737383B1, “Herbicidal oxadiazolidines” (priority 1999, dated 2004).

How the values were obtained:
soybean = assay: Test B pre/postemergence soybean; assay type: in vivo, Glycine max
Outline: (§1)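 Test chemicals in a non-phytotoxic solvent mixture with surfactant were sprayed preemergence onto planted seeds and postemergence onto plants 2 to 18 cm tall (1- to 4-leaf stage). After twelve to sixteen days in a greenhouse, injury was visually rated against untreated controls from 0 (no effect) to 10 (complete control).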

crabgrass = assay: Test B pre/postemergence crabgrass; assay type: in vivo, Digitaria sanguinalis
Outline: as §1

cocklebur = assay: Test B pre/postemergence cocklebur; assay type: in vivo, Xanthium strumarium
Outline: as §1

giant foxtail = assay: Test B pre/postemergence giant foxtail; assay type: in vivo, Setaria faberii
Outline: as §1

wheat = assay: Test B pre/postemergence wheat; assay type: in vivo, Triticum aestivum
Outline: as §1

surinam grass = assay: Test B pre/postemergence surinam grass; assay type: in vivo, Brachiaria decumbens
Outline: as §1

corn = assay: Test B pre/postemergence corn; assay type: in vivo, Zea mays
Outline: as §1

bamyardgrass = assay: Test B flood test barnyardgrass; assay type: in vivo, Echinochloa crus-galli
Outline: (§2)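 Each value is a visual injury score relative to controls, with 10 meaning complete control and 0 no effect. Evaluation took place twelve to sixteen days after the 2-leaf-stage plants were treated and kept in the greenhouse.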

wild oat = assay: Test B pre/postemergence wild oat; assay type: in vivo, Avena fatua
Outline: as §1

velvetleaf = assay: Test B pre/postemergence velvetleaf; assay type: in vivo, Abutilon theophrasti
Outline: as §1

blackgrass = assay: Test B pre/postemergence blackgrass; assay type: in vivo, Alopecurus myosuroides
Outline: as §1

purple nutsedge = assay: Test B pre/postemergence purple nutsedge; assay type: in vivo, Cyperus rotundus
Outline: as §1

smallflower flatsedge = assay: Test B flood test smallflower flatsedge; assay type: in vivo, Cyperus difformis
Outline: as §2

sugar beet = assay: Test B pre/postemergence sugar beet; assay type: in vivo, Beta vulgaris
Outline: as §1

duck salad = assay: Test B flood test duck salad; assay type: in vivo, Heteranthera limosa
Outline: as §2

rice = assay: Test B flood test rice; assay type: in vivo, Oryza sativa
Outline: as §2

bedstraw = assay: Test B pre/postemergence bedstraw; assay type: in vivo, Galium aparine; conditions: Preemergence
Outline: as §1

morningglory = assay: Test B pre/postemergence morningglory; assay type: in vivo, Ipomoea hederacea
Outline: as §1

pigweed = assay: Test B pre/postemergence pigweed; assay type: in vivo, Amaranthus retroflexus
Outline: as §1

rape = assay: Test B pre/postemergence rape; assay type: in vivo, Brassica napus
Outline: as §1

[1] = Postemergence, Rate 250 g/ha, scale 0 to 10, 0 is no effect, 10 is complete control
[2] = Postemergence, Rate 500 g/ha, scale of 0 to 10 where 0 is no effect and 10 is complete control
[3] = Preemergence, Rate 62 g/ha, scale 0 to 10 (0 no effect, 10 complete control)
[4] = Preemergence, Rate 125 g/ha, scale of 0 to 10 where 0 is no effect and 10 is complete control
[5] = Preemergence, Rate 250 g/ha, scale 0 to 10, 0 is no effect, 10 is complete control
[6] = Preemergence, Rate 500 g/ha, scale 0 to 10, 0 is no effect, 10 is complete control
[7] = Postemergence, Rate 125 g/ha, scale 0 to 10, 0 is no effect, 10 is complete control
[8] = Rate 62 g/ha, Postemergence, scale of 0 to 10 where 0 is no effect and 10 is complete control
[9] = Preemergence, Rate 250 g/ha, scale of 0 to 10 where 0 is no effect and 10 is complete control
[10] = Rate 62 g/ha, flood test species, Pre-emergence, visual evaluation after twelve to sixteen days
[11] = Rate 125 g/ha, under heading Pre-emergence, flood test species, visual evaluation after twelve to sixteen days
[12] = Rate 250 g/ha, Pre-emergence, flood-test species, scale 0 to 10, 0 is no effect, 10 is complete control
[13] = Rate 500 g/ha, Pre-emergence, flood test species, scale 0 to 10 (0 no effect, 10 complete control)

Cc1nc(Cl)sc1C(C)n1c(=O)on(C(=O)N(c2ccc(Cl)cc2)C(C)C)c1=O (centres unmarked) [Compound 406]
Plant response rating, Soybean (soybean; [1]): 2
Soybean plant response rating (soybean; [2]): 2
Plant response rating, Soybean (soybean; [3]): 0
Plant response rating, Soybean (soybean; [4]): 0
Soybean plant response rating (soybean; [5]): 0
Soybean plant response rating (soybean; [6]): 0
Plant response rating, Crabgrass (crabgrass; [7]): 0
Plant response rating, Crabgrass (crabgrass; [1]): 0
Crabgrass plant response rating (crabgrass; [2]): 0
Plant response rating, Crabgrass (crabgrass; [3]): 0
Plant response rating, Crabgrass (crabgrass; [4]): 0
Crabgrass plant response rating (crabgrass; [5]): 2
Crabgrass plant response rating (crabgrass; [6]): 6
Crabgrass plant response rating (crabgrass; [8]): 0
Plant response rating, Cocklebur (cocklebur; [7]): 0
Plant response rating, Cocklebur (cocklebur; [1]): 0
Cocklebur plant response rating (cocklebur; [2]): 0
Plant response rating, Cocklebur (cocklebur; [3]): 0
Plant response rating, Cocklebur (cocklebur; [4]): 0
Cocklebur plant response rating (cocklebur; [5]): 0
Cocklebur plant response rating (cocklebur; [6]): 0
Cocklebur plant response rating (cocklebur; [8]): 0
Plant response rating, Giant foxtail (giant foxtail; [7]): 0
Plant response rating, Giant foxtail (giant foxtail; [1]): 0
Giant foxtail plant response rating (giant foxtail; [2]): 0
Plant response rating, Giant foxtail (giant foxtail; [3]): 0
Plant response rating, Giant foxtail (giant foxtail; [4]): 0
Giant foxtail plant response rating (giant foxtail; [5]): 2
Giant foxtail plant response rating (giant foxtail; [6]): 9
Giant foxtail plant response rating (giant foxtail; [8]): 0
Wheat plant response rating (wheat; [2]): 0
Plant response rating, Wheat (wheat; [3]): 0
Plant response rating, Wheat (wheat; [4]): 0
Wheat plant response rating (wheat; [5]): 0
Wheat plant response rating (wheat; [6]): 0
Plant response rating, B. signalgrass (surinam grass; [7]): 0
Plant response rating, B. signalgrass (surinam grass; [1]): 0
B. signalgrass plant response rating (surinam grass; [2]): 0
Plant response rating, B. signalgrass (surinam grass; [3]): 0
Plant response rating, B. signalgrass (surinam grass; [4]): 0
B. signalgrass plant response rating (surinam grass; [9]): 0
B. signalgrass plant response rating (surinam grass; Preemergence, Rate 500 g/ha, scale of 0 to 10 where 0 is no effect and 10 is complete control): 0
B. signalgrass plant response rating (surinam grass; [8]): 0
Plant response rating, Corn (corn; [7]): 0
Plant response rating, Corn (corn; [1]): 0
Corn plant response rating (corn; [2]): 0
Plant response rating, Corn (corn; [3]): 0
Plant response rating, Corn (corn; [4]): 0
Corn plant response rating (corn; [5]): 0
Corn plant response rating (corn; [6]): 0
Corn plant response rating (corn; [8]): 0
Plant response rating, Barnyardgrass (0 to 10 scale, 0 is no effect, 10 is complete control) (bamyardgrass; [10]): 0
Barnyardgrass plant response rating (0 to 10 scale, 0 is no effect, 10 is complete control) (bamyardgrass; [11]): 0
Barnyardgrass plant response rating (bamyardgrass; [12]): 0
Barnyardgrass plant response rating (bamyardgrass; [13]): 0
Wild oats plant response rating (wild oat; [2]): 0
Plant response rating, Wild oats (wild oat; [3]): 0
Plant response rating, Wild oats (wild oat; [4]): 0
Wild oats plant response rating (wild oat; [5]): 0
Wild oats plant response rating (wild oat; [6]): 0
Plant response rating, Velvetleaf (velvetleaf; [1]): 0
Velvetleaf plant response rating (velvetleaf; [2]): 0
Plant response rating, Velvetleaf (velvetleaf; [3]): 0
Plant response rating, Velvetleaf (velvetleaf; [4]): 0
Velvetleaf plant response rating (velvetleaf; [5]): 0
Velvetleaf plant response rating (velvetleaf; [6]): 0
Plant response rating, Blackgrass (blackgrass; [7]): 0
Plant response rating, Blackgrass (blackgrass; [1]): 0
Blackgrass plant response rating (blackgrass; [2]): 0
Plant response rating, Blackgrass (blackgrass; [3]): 0
Plant response rating, Blackgrass (blackgrass; [4]): 0
Blackgrass plant response rating (blackgrass; [9]): 0
Blackgrass plant response rating (blackgrass; [6]): 0
Blackgrass plant response rating (blackgrass; [8]): 0
Plant response rating, Nutsedge (purple nutsedge; [1]): 0
Nutsedge plant response rating (purple nutsedge; [2]): 0
Plant response rating, Nutsedge (purple nutsedge; [3]): 0
Plant response rating, Nutsedge (purple nutsedge; [4]): 0
Nutsedge plant response rating (purple nutsedge; [5]): 0
Nutsedge plant response rating (purple nutsedge; [6]): 0
Plant response rating, S. Flatsedge (0 to 10 scale, 0 is no effect, 10 is complete control) (smallflower flatsedge; [10]): 0
S. Flatsedge plant response rating (0 to 10 scale, 0 is no effect, 10 is complete control) (smallflower flatsedge; [11]): 0
S. Flatsedge plant response rating (smallflower flatsedge; [12]): 0
S. Flatsedge plant response rating (smallflower flatsedge; [13]): 0
Plant response rating, Sugarbeets (sugar beet; [1]): 0
Sugarbeets plant response rating (sugar beet; [2]): 0
Plant response rating, Sugarbeets (sugar beet; [3]): 0
Plant response rating, Sugarbeets (sugar beet; [4]): 0
Sugarbeets plant response rating (sugar beet; [5]): 0
Sugarbeets plant response rating (sugar beet; [6]): 0
Plant response rating, Ducksalad (0 to 10 scale, 0 is no effect, 10 is complete control) (duck salad; [10]): 0
Ducksalad plant response rating (0 to 10 scale, 0 is no effect, 10 is complete control) (duck salad; [11]): 0
Ducksalad plant response rating (duck salad; [12]): 0
Ducksalad plant response rating (duck salad; [13]): 0
Plant response rating, Rice (0 to 10 scale, 0 is no effect, 10 is complete control) (rice; [10]): 0
Rice plant response rating (0 to 10 scale, 0 is no effect, 10 is complete control) (rice; [11]): 0
Rice plant response rating (rice; [12]): 0
Rice plant response rating (rice; [13]): 0
Plant response rating, Bedstraw (bedstraw; Rate 62 g/ha, scale 0 to 10 (0 no effect, 10 complete control)): 0
Plant response rating, Bedstraw (bedstraw; Rate 125 g/ha, scale of 0 to 10 where 0 is no effect and 10 is complete control): 0
Bedstraw plant response rating (bedstraw; Rate 250 g/ha, scale of 0 to 10 where 0 is no effect and 10 is complete control): 0
Plant response rating, Morningglory (morningglory; [1]): 2
Morningglory plant response rating (morningglory; [2]): 2
Plant response rating, Morningglory (morningglory; [3]): 0
Plant response rating, Morningglory (morningglory; [4]): 0
Morningglory plant response rating (morningglory; [5]): 0
Morningglory plant response rating (morningglory; [6]): 0
Plant response rating, Redroot pigweed (pigweed; [1]): 0
Redroot pigweed plant response rating (pigweed; [2]): 0
Plant response rating, Redroot pigweed (pigweed; [3]): 0
Plant response rating, Redroot pigweed (pigweed; [4]): 0
Redroot pigweed plant response rating (pigweed; [5]): 0
Redroot pigweed plant response rating (pigweed; [6]): 0
Plant response rating, Rape (rape; [1]): 0
Rape plant response rating (rape; [2]): 0
Plant response rating, Rape (rape; [3]): 0
Plant response rating, Rape (rape; [4]): 0
Rape plant response rating (rape; [5]): 0
Rape plant response rating (rape; [6]): 0
